Laboratory results: patent US9504666B2, “Chloroprocaine-based pharmaceutical composition for repeated intrathecal administration” (SINTETICA S.A., priority 2012, dated 2016)
Like-named read-outs stand apart in the source and are kept apart here.

How the values were obtained:
[1] = in particular in form of hydrochloride; cited from earlier work
[2] = test system: rats; assay: Behaviour observation in the pre-clinical neurotoxicity trial with repeated intrathecal doses; conditions: for changes in behavior: 7 consecutive days
Experimental: (§1) A pre-clinical trial was carried out to assess the neurotoxicity of 2-chloroprocaine by intrathecal administration in repeated doses using a saline solution as control.
(§2) A first group of six rats was repeatedly treated with 20 μl of an injectable saline solution by intrathecal administration once a day.

[3] = test system: rats; conditions: rat, in vivo
Experimental: as §1, §2

[4] = test system: rats; assay: Tail flick latency after repeated intrathecal doses; conditions: for tail flick latency before injecting: before the daily 20 μl intrathecal injection
Experimental: The data are presented as ±SEM average of 6 rats;
as §1, §2

[5] = cited from earlier work
[6] = cited from earlier work; remark: listed apart in the source
[7] = Body weight variation after repeated intrathecal doses; conditions: rats, 20 μl of 0.5% solution intrathecally once a day, 7 consecutive days
Experimental: as §1, §2

[8] = test system: conus medullaris (cauda equina); assay: Histological nerve injury score of 10 mm caudal portion of conus medullaris (cauda equina); conditions: 0.5% solution
[9] = test system: rat; conditions: in vivo rat models, intrathecal, equipotent concentrations, versus lidocaine; cited from earlier work
[10] = test system: rats; conditions: rat, in vivo; remark: listed apart in the source
Experimental: as §1, §2

[11] = test system: rats; assay: Motor function score after repeated intrathecal doses; conditions: 20 μl of 0.5% solution intrathecally once a day, 7 consecutive days
Experimental: as §1, §2

[12] = rats, 20 μl of 0.5% solution intrathecally once a day
[13] = 20 μl of 0.5% solution intrathecally, chloroprocaine not significant, bupivacaine P<0.001

CCN(CC)CCOC(=O)c1ccc(N)cc1Cl [2-chloroprocaine, 2-(diethylaminoethyl) 4-amino-2-chlorobenzoate]
lasting of effect [1]: 30 to 60 min
onset [1]: 5 to 15 min
changes in behavior [2, 12]: No appreciable changes in behavior
changes in behavior ([2]; rats, 20 μl of 1% solution intrathecally once a day): No appreciable changes in behavior
changes in behavior ([2]; rats, 20 μl of 2% solution intrathecally once a day): No appreciable changes in behavior
tolerability compared with other administered concentrations ([2]; rats, repeated intrathecal, 2-chloroprocaine 2%, bupivacaine 0.5%): less tolerated
neurotoxicity of repeated intrathecal administration ([2]; repeated intrathecal administration): does not determine detectable neurotoxicity
motor functions (score) [3]: remained unchanged
tail flick latency before injecting ([4]; 0.5% solution): comparable with the values of rats treated with vehicle
tail flick latency before injecting ([4]; 1% solution): comparable with the values of rats treated with vehicle
tail flick latency before injecting ([4]; 2% solution): comparable with the values of rats treated with vehicle
tail flick latency 20 minutes after injection [4, 13]: slight increase
tail flick latency 20 minutes after injection ([4]; 20 μl of 1% solution intrathecally, P<0.05): significant increase
tail flick latency 20 minutes after injection ([4]; 20 μl of 2% solution intrathecally, P<0.001): significant increase
half-life ([5]; offset by plasma pseudo cholinesterase): lower than one
plasma half-life ([5]; plasma): 45 to 60 s

CCN(CC)CC(=O)Nc1c(C)cccc1C [lidocaine]
transient neurologic syndrome (TNS) ([6]; use in spinal anesthesiological practice, Pollock 2002): associated to the onset of transient neurologic syndrome (TNS)

CCCCN1CCCCC1C(=O)Nc1c(C)cccc1C (stereo not drawn) [bupivacaine]
body weight [7]: decreased
changes in behavior [2, 12]: modest sleepiness in one rat on the fifth day and in two rats on the sixth and seventh days
tail flick latency before injecting ([4]; 0.5% solution): comparable with the values of rats treated with vehicle
tail flick latency 20 minutes after injection [4, 13]: significant increase
moderately inflammatory infiltrate in some fibers, number of rats ([8]; group of 6 rats, 7 days repeated intrathecal): one
histological score (nerve injury score 0 to 3) ([8]; rats, 20 μl intrathecally once a day for 7 days, ±SEM of 6 rats, vehicle 0.809±0.067): 0.979±0.110
morphological damage and functional worsening [9]: less severe morphological damage and functional worsening than lidocaine
tolerability compared with other administered concentrations [10]: less tolerated
motor functions (score) [11]: two rats on the sixth day and three rats on the seventh day showed bilateral limbic weakness which influenced perambulation (score 2)

CCN(CC)CCOC(=O)c1ccc(N)cc1 [procaine]
percentage of cases refractory to local anesthesia ([6]; spinal anesthesia, Hodgson et al. 2000): 17%
